Assay results as given in patent US12252524B2, “GIP/GLP1 co-agonist compounds” (Eli Lilly and Company, priority 2018, dated 2025).
Numbered stars: 1 amine (or outer) side, 2 acyl side, 3 side chain; on linkers, the order of the positions; unused ones are H or OH. Square brackets hold non-standard residues; d marks the D form. Side chains are listed from the residue outwards. Peptide text beside a SMILES is read from it. * marks the point of attachment. C20 diacid = O=C(O)CCCCCCCCCCCCCCCCCCC(=O)*; C18 diacid = O=C(O)CCCCCCCCCCCCCCCCC(=O)*; γGlu = O=C(O)[C@H](CCC(=O)[*:2])N[*:1]; αMeY = C[C@](N)(Cc1ccc(O)cc1)C(=O)O; αMeL = CC(C)C[C@](C)(N)C(=O)O; Orn = NCCC[C@H](N)C(=O)O; AEEA = NCCOCCOCC(=O)O; Aib = CC(C)(N)C(=O)O

Tests used:
human GLP-1R [1] = biological target: T1, human GLP-1R (Homo sapiens, UniProt P43220); assay: GLP-1R HEK293 cell membrane [35S]GTPγS binding assay; type: biochemical; design: expressed in transfected cells; host or cells: HEK293 cells expressing human GLP-1R; membranes; details: HEK293 cell membranes expressing human GLP-1R, [35S]GTPγS binding; read-out: hGLP1R GTPgS Rel EC50 nM (SEM, n)
T1 sequence (P43220 24-463): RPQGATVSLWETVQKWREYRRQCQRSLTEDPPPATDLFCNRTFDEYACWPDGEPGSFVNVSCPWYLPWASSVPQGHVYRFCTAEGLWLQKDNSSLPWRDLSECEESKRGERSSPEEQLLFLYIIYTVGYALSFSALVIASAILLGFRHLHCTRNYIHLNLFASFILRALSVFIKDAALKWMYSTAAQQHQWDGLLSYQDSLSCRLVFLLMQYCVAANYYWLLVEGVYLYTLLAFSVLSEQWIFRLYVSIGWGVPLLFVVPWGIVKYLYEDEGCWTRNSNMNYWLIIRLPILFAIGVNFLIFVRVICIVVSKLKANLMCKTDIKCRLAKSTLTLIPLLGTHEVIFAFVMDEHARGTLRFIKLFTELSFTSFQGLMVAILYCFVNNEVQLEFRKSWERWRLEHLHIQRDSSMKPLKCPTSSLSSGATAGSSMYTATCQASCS
How it was run: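 Agonist-driven Gαs activation read as [35S]GTPγS ([…]) binding to receptor-expressing HEK293 membranes, 30 min at room temperature, pH 7.4. Detection by anti-Gαs immunocapture on scintillation beads; EC50 derived from four-parameter logistic concentration-response fit.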

[2] = biological target: T2, gastric inhibitory peptide receptor (GIPR) (Homo sapiens, UniProt P48546); assay: cAMP pharmacological functional assay in presence of casein, hGIPR; type: cell-based; details: HEK293 cells expressing hGIPR, 0.1% Casein, geometric mean; read-out: hGIPR cAMP Rel EC50 nM (SEM, n)
T2 sequence (P48546 22-466): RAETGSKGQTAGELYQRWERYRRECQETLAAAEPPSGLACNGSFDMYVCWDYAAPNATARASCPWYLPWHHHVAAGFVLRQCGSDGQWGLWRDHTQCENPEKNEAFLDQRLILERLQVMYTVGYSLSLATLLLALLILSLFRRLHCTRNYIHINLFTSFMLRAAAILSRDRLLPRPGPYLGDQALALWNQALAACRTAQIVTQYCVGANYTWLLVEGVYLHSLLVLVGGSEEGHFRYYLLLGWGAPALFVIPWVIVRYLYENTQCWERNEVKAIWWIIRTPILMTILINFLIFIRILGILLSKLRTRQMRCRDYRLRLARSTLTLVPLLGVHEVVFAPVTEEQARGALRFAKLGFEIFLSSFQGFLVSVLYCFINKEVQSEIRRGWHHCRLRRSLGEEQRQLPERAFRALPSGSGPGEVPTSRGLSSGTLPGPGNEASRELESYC

human GLP-1R [3] = biological target: T1, human GLP-1R; assay: [125I]-GLP-1 binding (SPA), human GLP-1 receptor; design: expressed in transfected cells; crude membranes; details: read-out: hGLP1R Ki, (nM) (SEM, n)
How it was run: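 Assay buffer: HEPES 25 mM, pH 7.4, CaCl2 2.5 mM, MgCl2 1 mM, with EDTA-free protease inhibitors. Receptor came from crude cell membranes prepared by homogenization and centrifugation at 4° C. IC50s came from four-parameter fits (maximum, minimum, IC50, Hill slope) and were expressed as Ki geometric means with SEM.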

human Gcg receptor = biological target: T3, human Gcg receptor (Homo sapiens, UniProt P47871); assay: [125I]-Glucagon binding (SPA), human Gcg receptor; details: read-out: hGLcgR Ki, nM (SEM, n)
T3 construct: expressed in transfected cells; crude membranes
T3 sequence (P47871 26-477): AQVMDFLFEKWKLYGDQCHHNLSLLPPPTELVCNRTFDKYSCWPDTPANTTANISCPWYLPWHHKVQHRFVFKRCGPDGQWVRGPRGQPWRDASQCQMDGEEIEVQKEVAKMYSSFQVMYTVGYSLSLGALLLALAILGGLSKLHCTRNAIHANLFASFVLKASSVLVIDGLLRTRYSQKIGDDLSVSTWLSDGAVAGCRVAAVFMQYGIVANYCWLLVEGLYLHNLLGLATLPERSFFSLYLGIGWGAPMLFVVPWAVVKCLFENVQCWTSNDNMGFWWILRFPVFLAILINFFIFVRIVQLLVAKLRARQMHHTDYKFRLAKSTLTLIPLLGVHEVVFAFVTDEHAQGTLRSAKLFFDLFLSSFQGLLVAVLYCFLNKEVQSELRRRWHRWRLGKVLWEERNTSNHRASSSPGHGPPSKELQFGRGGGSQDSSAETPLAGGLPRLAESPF
How it was run: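 Cell pellets were lysed in hypotonic Tris buffer, pH 7.5, homogenized, and spun at low then high speed to give crude membranes. Ki was derived from the fitted IC50.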

human GLP-1R [4] = biological target: T1, human GLP-1R; assay: GLP-1R CHO cell β-arrestin recruitment assay; type: cell-based; design: host or cells: CHO-K1 PathHunter cells, assay-ready frozen; details: for EC50: CHO-K1 cells, PathHunter β-arrestin-2 recruitment, 0.1% casein, read-out: hGLP1R B-Arrestin2 Rel EC50 uM (SEM, n); for hGLP1R B-Arrestin2 % Top: normalized to GLP-1 maximum control
How it was run: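 Peptide-induced β-arrestin-2 recruitment measured by enzyme-fragment complementation luminescence after 90 min at 37 °C plus 60 min detection at RT.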

[5] = biological target: human GLP-1 receptor (GLP-1R) (Homo sapiens, UniProt P43220); assay: cAMP pharmacological functional assay in presence of casein, hGLP-1R; type: cell-based; details: HEK293 cells expressing hGLP-1R, 0.1% Casein, geometric mean; read-out: hGLP1R cAMP Rel EC50 nM (SEM, n)
human GLP-1 receptor (GLP-1R), sequence (P43220 24-463): as the sequence (P43220 24-463) above

human GIP receptor = biological target: T4, human GIP receptor (Homo sapiens, UniProt P48546); assay: [125I]-GIP binding (SPA), human GIP receptor; details: read-out: hGIPR Ki, nM (SEM, n)
T4 construct: expressed in transfected cells; crude membranes
T4 sequence (P48546 22-466): T2 sequence (P48546 22-466)

Structure (SMILES) | EC50 (human GLP-1R [1]) | EC50 [2] | Ki (human GLP-1R [3]) | Ki (human Gcg receptor) | EC50 (human GLP-1R [4]) | hGLP1R B-Arrestin2 % Top (human GLP-1R [4]) | EC50 [5] | Ki (human GIP receptor)
CC[C@H](C)[C@H](NC(=O)[C@H](CC(C)C)NC(=O)[C@H](Cc1ccc(O)cc1)NC(=O)[C@H](CCC(=O)O)NC(=O)[C@@H](NC(=O)[C@H](Cc1ccccc1)NC(=O)[C@H](C)NC(=O)C(C)(C)NC(=O)[C@H](CCC(N)=O)NC(=O)[C@H](C)NC(=O)[C@H](CCCCNC(=O)COCCOCCNC(=O)COCCOCCNC(=O)CC[C@H](NC(=O)CCCCCCCCCCCCCCCCCCC(=O)O)C(=O)O)NC(=O)[C@H](CCCN)NC(=O)[C@H](CC(=O)O)NC(=O)[C@H](CC(C)C)NC(=O)[C@](C)(CC(C)C)NC(=O)[C@@H](NC(=O)[C@H](CO)NC(=O)[C@H](Cc1ccc(O)cc1)NC(=O)[C@H](CC(=O)O)NC(=O)[C@H](CO)NC(=O)[C@@H](NC(=O)[C@H](Cc1ccccc1)NC(=O)[C@@H](NC(=O)CNC(=O)[C@H](CCC(=O)O)NC(=O)C(C)(C)NC(=O)[C@H](N)Cc1ccc(O)cc1)[C@@H](C)O)[C@@H](C)O)[C@@H](C)CC)C(C)C)C(=O)N[C@@H](C)C(=O)NCC(=O)NCC(=O)N1CCC[C@H]1C(=O)N[C@@H](CO)C(=O)N[C@@H](CO)C(=O)NCC(=O)N[C@@H](C)C(=O)N1CCC[C@H]1C(=O)N1CCC[C@H]1C(=O)N1CCC[C@H]1C(=O)N[C@@H](CO)C(N)=O [Example 358] (H-[dY][Aib]EGTFTSDYSI[αMeL]LD[Orn]K([AEEA-AEEA-γGlu-C20 diacid])AQ[Aib]AFVEYLIAGGPSSGAPPPS-NH2; N-terminus assumed) | 0.414 nM | 0.183 nM | 1.37 nM | 915 nM | 0.00938 µM | 21.4% | 0.117 nM | 0.0636 nM
CC[C@H](C)[C@H](NC(=O)[C@H](CC(C)C)NC(=O)[C@H](Cc1ccc(O)cc1)NC(=O)[C@H](CCC(=O)O)NC(=O)[C@@H](NC(=O)[C@H](Cc1ccccc1)NC(=O)[C@H](CCC(=O)O)NC(=O)C(C)(C)NC(=O)[C@H](CCC(N)=O)NC(=O)[C@H](C)NC(=O)[C@H](CCCCNC(=O)COCCOCCNC(=O)COCCOCCNC(=O)CC[C@H](NC(=O)CCCCCCCCCCCCCCCCCCC(=O)O)C(=O)O)NC(=O)[C@H](CCCN)NC(=O)[C@H](CC(=O)O)NC(=O)[C@H](CC(C)C)NC(=O)[C@](C)(CC(C)C)NC(=O)[C@@H](NC(=O)[C@H](CO)NC(=O)[C@H](Cc1ccc(O)cc1)NC(=O)[C@H](CC(=O)O)NC(=O)[C@H](CO)NC(=O)[C@@H](NC(=O)[C@H](Cc1ccccc1)NC(=O)[C@@H](NC(=O)CNC(=O)[C@H](CCC(=O)O)NC(=O)C(C)(C)NC(=O)[C@H](N)Cc1ccc(O)cc1)[C@@H](C)O)[C@@H](C)O)[C@@H](C)CC)C(C)C)C(=O)N[C@@H](C)C(=O)NCC(=O)NCC(=O)N1CCC[C@H]1C(=O)N[C@@H](CO)C(=O)N[C@@H](CO)C(=O)NCC(=O)N[C@@H](C)C(=O)N1CCC[C@H]1C(=O)N1CCC[C@H]1C(=O)N1CCC[C@H]1C(=O)N[C@@H](CO)C(N)=O [Example 359] (H-[dY][Aib]EGTFTSDYSI[αMeL]LD[Orn]K([AEEA-AEEA-γGlu-C20 diacid])AQ[Aib]EFVEYLIAGGPSSGAPPPS-NH2) | 0.496 nM | 0.172 nM | 2.59 nM | > 982 nM | 0.0841 µM | 28.4% | 0.131 nM | 0.0874 nM
CC[C@H](C)[C@H](NC(=O)[C@H](CC(C)C)NC(=O)[C@H](Cc1ccc(O)cc1)NC(=O)[C@@H](CCC(=O)O)NC(=O)[C@@H](NC(=O)[C@H](Cc1ccccc1)NC(=O)[C@H](C)NC(=O)C(C)(C)NC(=O)[C@H](CCC(N)=O)NC(=O)[C@H](C)NC(=O)[C@H](CCCCNC(=O)COCCOCCNC(=O)COCCOCCNC(=O)CC[C@H](NC(=O)CCCCCCCCCCCCCCCCC(=O)O)C(=O)O)NC(=O)[C@H](CCCN)NC(=O)[C@H](CC(=O)O)NC(=O)[C@H](CC(C)C)NC(=O)[C@](C)(CC(C)C)NC(=O)[C@@H](NC(=O)[C@H](CO)NC(=O)[C@H](Cc1ccc(O)cc1)NC(=O)[C@H](CC(=O)O)NC(=O)[C@H](CO)NC(=O)[C@@H](NC(=O)[C@H](Cc1ccccc1)NC(=O)[C@@H](NC(=O)CNC(=O)[C@H](CCC(=O)O)NC(=O)C(C)(C)NC(=O)[C@H](N)Cc1ccc(O)cc1)[C@@H](C)O)[C@@H](C)O)[C@@H](C)CC)[C@@H](C)CC)C(=O)N[C@@H](C)C(=O)NCC(=O)NCC(=O)N1CCC[C@H]1C(=O)N[C@@H](CO)C(=O)N[C@@H](CO)C(=O)NCC(=O)N[C@@H](C)C(=O)N1CCC[C@H]1C(=O)N1CCC[C@H]1C(=O)N1CCC[C@H]1C(=O)N[C@@H](CO)C(N)=O [Example 363] (H-[dY][Aib]EGTFTSDYSI[αMeL]LD[Orn]K([AEEA-AEEA-γGlu-C18 diacid])AQ[Aib]AFI[dE]YLIAGGPSSGAPPPS-NH2) | 0.943 nM | 0.145 nM | 3.89 nM | > 1020 nM | 0.135 µM | 22.1% | 0.208 nM | 0.17 nM
CC[C@H](C)[C@H](NC(=O)[C@H](CC(C)C)NC(=O)[C@](C)(Cc1ccc(O)cc1)NC(=O)[C@H](CCC(=O)O)NC(=O)[C@@H](NC(=O)[C@H](Cc1ccccc1)NC(=O)[C@H](CCC(=O)O)NC(=O)C(C)(C)NC(=O)[C@H](CCC(N)=O)NC(=O)[C@H](C)NC(=O)[C@H](CCCCNC(=O)COCCOCCNC(=O)COCCOCCNC(=O)CC[C@H](NC(=O)CCCCCCCCCCCCCCCCCCC(=O)O)C(=O)O)NC(=O)[C@H](CCCCN)NC(=O)[C@H](CC(=O)O)NC(=O)[C@H](CC(C)C)NC(=O)[C@](C)(CC(C)C)NC(=O)[C@@H](NC(=O)[C@H](CO)NC(=O)[C@H](Cc1ccc(O)cc1)NC(=O)[C@H](CC(=O)O)NC(=O)[C@H](CO)NC(=O)[C@@H](NC(=O)[C@H](Cc1ccccc1)NC(=O)[C@@H](NC(=O)CNC(=O)[C@H](CCC(=O)O)NC(=O)C(C)(C)NC(=O)[C@@H](N)Cc1ccc(O)cc1)[C@@H](C)O)[C@@H](C)O)[C@@H](C)CC)[C@@H](C)CC)C(=O)N[C@@H](C)C(=O)NCC(=O)NCC(=O)N1CCC[C@H]1C(=O)N[C@@H](CO)C(=O)N[C@@H](CO)C(=O)NCC(=O)N[C@@H](C)C(=O)N1CCC[C@H]1C(=O)N1CCC[C@H]1C(=O)N1CCC[C@H]1C(=O)N[C@@H](CO)C(N)=O [Example 367] (H-Y[Aib]EGTFTSDYSI[αMeL]LDKK([AEEA-AEEA-γGlu-C20 diacid])AQ[Aib]EFIE[αMeY]LIAGGPSSGAPPPS-NH2) | 0.289 nM | 0.0179 nM | 0.809 nM | 777 nM | 0.00666 µM | 70.6% | 0.0641 nM | 0.0282 nM
